Results reported in US6177592A, “Compounds” (priority 1997, dated 2001).

How the values were obtained:
Meth A cells = experiment: Meth A subcutaneous tumor growth in BALB/c mice; format: in vivo, mouse; settings: 5 mg/kg/day s.c., five days; after two weeks
Protocol: GM was diluted with a physiological saline solution to a predetermined concentration and subjected to the following tests.
(1) Meth A cells (2×10^6 cells/mouse) were subcutaneously injected to abdomen of female BALB/c mice (body weight: about 20 g) of eight weeks age. After that, GM (5 mg/kg/day) was subcutaneously injected for consecutive five days to the same site. On the other hand, a physiological saline solution was subcutaneously injected to the control group by the same manner. After two weeks, the cancer tissues generated in abdomen of the mice were excised and their weight were measured.

Fas antigen = Fas antigen expression in Molt-3 cells; format: cell-based, human
Protocol: (2) Influence of GM on Fas antigen expression (productive induction) in Jurkat cells and Molt-3 cells was measured as follows. In a 10% FCS-containing RPMI 1640 medium containing 0, 1, 5, 10 or 20 μM of cyclopentenone or GM, 5×10^5 cell/ml of Jurkat cells or Molt-3 cells were incubated at 37° C. for 24 hours in the presence of 5% of CO2 and then subjected to a two-step immunostaining using an anti-Fas antibody (manufactured by Boehringer-Ingelheim) in accordance with a method of Munker [Munker, R.: Ann. Hematol., volume 70, pages 15-17 (1995)].
Fluorescence intensity of the stained 1×10^4 cells was measured by a flow cytometer (Orthocytron; manufactured by Ortho Diagnostic Systems) and ratio of the cell showing a predetermined or higher fluorescence intensity which were Fas antigen-expressing cells was calculated.
(3) Molt-3 cells were incubated for 1, 3, 6, 12 or 24 hours after addition of 10 (i M of GM by the same manner as in Example 12-(2) and then the ratio of the cells which expressed Fas antigen was measured by the same method as in Example 12-(2)sa

p24 antigen = p24 antigen in culture supernatant of CEM-3B cells; format: cell-based, HIV-1IIIB; settings: one day
Protocol: (2) Concentration of p24 antigen contained in the supernatant liquid in the culture after incubation of the CEM-3B cells mentioned in Example 15-(1) for one day was measured.

Molt-3 cells = experiment: Growth of Molt-3 cells (MTT); format: cell-based, human; settings: 24 hours
Protocol: (1) Jurkat cells (ATCC TIB-152) and Molt-3 cells (ATCC CRL-1552) which were human T cell leukemia cell stain were incubated in an RPMI 1640 medium (manufactured by Gibco BRL) containing 10% fetal calf serum (FCS, manufactured by Bio Whittaker) at 37° C. in the presence of 5% CO2 and the cells were then suspended in the above-mentioned medium containing 0, 5, 10 or 20 μM of GM to make the cell numbers 5×10^5 cells/ml followed by incubating for 24 hours. Cell growth was measured by an MTT method [Mosmann, et al.: J. Immunol. Methods, volume 65, pages 55-63 (1983)] wherein degree of cell growth was determined by the absorbance at 560 nm.

## N[C@@H](CCC(=O)N[C@@H](CSC1C=C(O)C(=O)C1)C(=O)NCC(=O)O)C(=O)O (stereo partly shown) [GM, 2-hydroxy-4-glutathion-S-yl-2-cyclopenten-1-one]
Meth A cells
  inhibiting action to the growth of cancer (weight of cancer tissues): significant inhibiting action to the growth of cancer
Fas antigen; 10 μM, 1-24 hours
  ratio of Fas antigen-expressing cells, time course: increased after 12 hours from the incubation and further increase was noted after 24 hours
Fas antigen; 1-10 μM, 24 hours
  ratio of Fas antigen-expressing cells: the ratio of Fas antigen-expressing cells increased on a concentration-dependent manner
p24 antigen
  p24 concentration in supernatant: the p24 concentration decreased depending upon the concentration of the added GM
Molt-3 cells; 5 μM or less
  effect in the growth of cells: no significant effect in the growth of cells
Molt-3 cells; Homo sapiens, 10 μM, read-out: inhibition of cell growth
  inhibition at 10 µM: ~50%
Molt-3 cells; Homo sapiens, 20 μM, read-out: inhibition of cell growth
  inhibition at 20 µM: ≥ 75%
